From patent US12319664B2, “Herbicidally active 3-phenylisoxazoline-5-carboxamides of cyclopentenylcarboxylic acid derivatives” (Bayer Aktiengesellschaft, priority 2018, dated 2025)

Assays:
[1] = system: POLCO; assay: Pre-emergence herbicidal action against POLCO; type: in vivo, Polygonum convolvulus; settings: application rate 80 g/ha
From the text: (§1) 1. Pre-emergence herbicidal action against harmful plants and crop plant compatibility Seeds of monocotyledonous and dicotyledonous weed plants and crop plants are placed in plastic or wood-fibre pots and covered with soil. The compounds of the invention, formulated in the form of wettable powders (WP) or as emulsion concentrates (EC), are then applied onto the surface of the covering soil as aqueous suspension or emulsion with addition of 0.5% additive at a water application rate of 600 l/ha (converted). After the treatment, the pots are placed in a greenhouse and kept under good growth conditions for the trial plants. After about 3 weeks, the effect of the preparations is scored visually in comparison with untreated controls as percentages. For example, 100% activity=the plants have died, 0% activity=like control plants. [table]

[2] = system: AVEFA; assay: Pre-emergence herbicidal action against AVEFA; type: in vivo, Avena fatua; settings: application rate 80 g/ha, scored visually after about 3 weeks vs untreated controls (100% = plants have died, 0% = like control plants)
From the text: as §1

[3] = system: SETVI; assay: Pre-emergence herbicidal action against SETVI; type: in vivo, Setaria viridis; settings: application rate 80 g/ha, scored visually after about 3 weeks vs untreated controls (100% = plants have died, 0% = like control plants)
From the text: as §1

[4] = system: ALOMY; assay: Pre-emergence herbicidal action against ALOMY; type: in vivo, Alopecurus myosuroides; settings: application rate 80 g/ha, scored visually after about 3 weeks vs untreated controls (100% = plants have died, 0% = like control plants)
From the text: as §1

[5] = system: AMARE; assay: Post-emergence herbicidal action against AMARE; type: in vivo, Amaranthus retroflexus; settings: application rate 80 g/ha, rated visually about 3 weeks after treatment
Summary of the method: (§2)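 Greenhouse pot test in sandy loam; plants sprayed at the one-leaf stage, 2 to 3 weeks after sowing, with WP or EC formulations as aqueous suspension/emulsion plus 0.5% additive at 600 l/ha water. Visual rating after about 3 weeks against untreated controls (100% = plants died, 0% = like control).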

[6] = system: LOLRI; assay: Post-emergence herbicidal action against LOLRI; type: in vivo, Lolium rigidum; settings: application rate 80 g/ha, rated visually after about 3 weeks
Summary of the method: as §2

[7] = system: ALOMY; assay: Post-emergence herbicidal action against ALOMY; type: in vivo, Alopecurus myosuroides; settings: application rate 80 g/ha, rated visually after about 3 weeks
Summary of the method: as §2

[8] = system: STEME; assay: Pre-emergence herbicidal action against STEME; type: in vivo, Stellaria media; settings: application rate 80 g/ha
From the text: as §1

[9] = system: SETVI; assay: Post-emergence herbicidal action against SETVI; type: in vivo, Setaria viridis; settings: application rate 80 g/ha, rated visually after about 3 weeks
Summary of the method: as §2

[10] = system: MATIN; assay: Pre-emergence herbicidal action against MATIN; type: in vivo, Matricaria inodora; settings: application rate 80 g/ha, scored visually after about 3 weeks vs untreated controls (100% = plants have died, 0% = like control plants)
From the text: as §1

[11] = system: ECHCG; assay: Pre-emergence herbicidal action against ECHCG; type: in vivo, Echinochloa crus-galli; settings: application rate 80 g/ha, scored visually after about 3 weeks vs untreated controls (100% = plants have died, 0% = like control plants)
From the text: as §1

[12] = system: PHBPU; assay: Pre-emergence herbicidal action against PHBPU; type: in vivo, Pharbitis purpurea; settings: application rate 80 g/ha
From the text: as §1

[13] = system: STEME; assay: Post-emergence herbicidal action against STEME; type: in vivo, Stellaria media; settings: application rate 80 g/ha, rated visually about 3 weeks after treatment
Summary of the method: as §2

[14] = system: ECHCG; assay: Post-emergence herbicidal action against ECHCG; type: in vivo, Echinochloa crus-galli; settings: application rate 80 g/ha, rated visually after about 3 weeks
Summary of the method: as §2

[15] = system: AVEFA; assay: Post-emergence herbicidal action against AVEFA; type: in vivo, Avena fatua; settings: application rate 80 g/ha, rated visually after about 3 weeks
Summary of the method: as §2

[16] = system: AMARE; assay: Pre-emergence herbicidal action against AMARE; type: in vivo, Amaranthus retroflexus; settings: application rate 80 g/ha
From the text: as §1

[17] = system: LOLRI; assay: Pre-emergence herbicidal action against LOLRI; type: in vivo, Lolium rigidum; settings: application rate 80 g/ha, scored visually after about 3 weeks vs untreated controls (100% = plants have died, 0% = like control plants)
From the text: as §1

[18] = system: MATIN; assay: Post-emergence herbicidal action against MATIN; type: in vivo, Matricaria inodora; settings: application rate 80 g/ha, rated visually about 3 weeks after treatment
Summary of the method: as §2

[19] = system: PHBPU; assay: Post-emergence herbicidal action against PHBPU; type: in vivo, Pharbitis purpurea; settings: application rate 80 g/ha, rated visually about 3 weeks after treatment
Summary of the method: as §2

[20] = system: VIOTR; assay: Pre-emergence herbicidal action against VIOTR; type: in vivo, Viola tricolor; settings: application rate 80 g/ha
From the text: as §1

[21] = system: HORMU; assay: Pre-emergence herbicidal action against HORMU; type: in vivo, Hordeum murinum; settings: application rate 80 g/ha
From the text: as §1

[22] = system: VIOTR; assay: Post-emergence herbicidal action against VIOTR; type: in vivo, Viola tricolor; settings: application rate 80 g/ha, rated visually about 3 weeks after treatment
Summary of the method: as §2

[23] = system: VERPE; assay: Post-emergence herbicidal action against VERPE; type: in vivo, Veronica persica; settings: application rate 80 g/ha
Summary of the method: as §2

[24] = system: HORMU; assay: Post-emergence herbicidal action against HORMU; type: in vivo, Hordeum murinum; settings: application rate 80 g/ha
Summary of the method: as §2

[25] = system: POLCO; assay: Post-emergence herbicidal action against POLCO; type: in vivo, Polygonum convolvulus; settings: application rate 80 g/ha, rated visually about 3 weeks after treatment
Summary of the method: as §2

[26] = system: ABUTH; assay: Post-emergence herbicidal action against ABUTH; type: in vivo, Abutilon theophrasti; settings: application rate 80 g/ha, rated visually about 3 weeks after treatment
Summary of the method: as §2

[27] = system: ABUTH; assay: Pre-emergence herbicidal action against ABUTH; type: in vivo, Abutilon theophrasti; settings: application rate 80 g/ha, scored visually after about 3 weeks vs untreated controls (100% = plants have died, 0% = like control plants)
From the text: as §1

Compound | Herbicidal action against [%] POLCO [1] [%] | Herbicidal action against [%] AVEFA [2] [%] | Herbicidal action against [%] SETVI [3] [%] | Herbicidal action against [%] ALOMY [4] [%] | Herbicidal action against [%] AMARE [5] [%] | Herbicidal action against [%] LOLRI [6] [%] | Herbicidal action against [%] ALOMY [7] [%] | Herbicidal action against [%] STEME [8] [%] | Herbicidal action against [%] SETVI [9] [%] | Herbicidal action against [%] MATIN [10] [%] | Herbicidal action against [%] ECHCG [11] [%] | Herbicidal action against [%] PHBPU [12] [%] | Herbicidal action against [%] STEME [13] [%] | Herbicidal action against [%] ECHCG [14] [%] | Herbicidal action against [%] AVEFA [15] [%] | Herbicidal action against [%] AMARE [16] [%] | Herbicidal action against [%] LOLRI [17] [%] | Herbicidal action against [%] PHBPU [19] [%] | Herbicidal action against [%] VIOTR [20] [%] | Herbicidal action against [%] HORMU [21] [%] | further results
COC(=O)[C@@H]1C=C[C@H](NC(=O)C2(C)CC(c3cccc(F)c3)=NO2)C1 (some centres unmarked) [Example I-004] | 100 | 90 | 100 | 100 | 80 | 80 | 80 | 100 | 80 | 80 | 100 | 90 | 80 | 80 | 90 | 80 | 90 | – | – | – | –
CC1(C(=O)N[C@H]2C=C[C@@H](C(=O)O)C2)CC(c2cccc(F)c2)=NO1 (some centres unmarked) [Example I-002] | 90 | 80 | 100 | 90 | – | 80 | 90 | 100 | 80 | 80 | 90 | 90 | 90 | 80 | 80 | 90 | 100 | 80 | 80 | 80 | Herbicidal action against [%] MATIN [18]: 80%
CCONC(=O)[C@@H]1C=C[C@H](NC(=O)C2(C)CC(c3cccc(F)c3)=NO2)C1 (some centres unmarked) [II-04] | 90 | 80 | 90 | 100 | – | 80 | 80 | 100 | 80 | 80 | 90 | – | 80 | 80 | 80 | 100 | 90 | – | – | 90 | –
CC1(C(=O)NC2CC=C(C(=O)NS(C)(=O)=O)C2)CC(c2cccc(F)c2)=NO1 (mixture of isomers) [IV-07] | 80 | 80 | 100 | 100 | 80 | 90 | 90 | 100 | 80 | 80 | – | 90 | 90 | 80 | 80 | 80 | 90 | 80 | 90 | 90 | Herbicidal action against [%] VIOTR [22]: 80%; Herbicidal action against [%] VERPE [23]: 80%; Herbicidal action against [%] HORMU [24]: 90%; Herbicidal action against [%] POLCO [25]: 80%
CONC(=O)[C@@H]1C=C[C@H](NC(=O)C2(C)CC(c3cc(F)cc(F)c3)=NO2)C1 (some centres unmarked) [II-02] | 100 | 90 | 100 | 90 | 80 | 80 | 80 | 100 | 80 | 90 | 80 | 90 | 90 | 80 | 80 | 100 | 90 | – | 90 | – | –
CC(C)C(C#N)NC(=O)C1C=CC(NC(=O)C2(C)CC(c3cc(F)cc(F)c3)=NO2)C1 (mixture of isomers) [II-12] | 100 | 80 | 90 | 90 | 80 | 80 | 90 | 90 | 80 | – | – | – | 90 | – | 80 | 90 | 90 | 80 | 80 | – | Herbicidal action against [%] VERPE [23]: 80%; Herbicidal action against [%] ABUTH [26]: 80%; Herbicidal action against [%] ABUTH [27]: 80%; Herbicidal action against [%] POLCO [25]: 80%
